Test [1] addresses human RBP4 (Homo sapiens (Human), UniProt P02753). As to the kind of experiment: Binding assay by Retinol-RBP4-TTR ELISA. A digest of the protocol:
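Biotinylated human TTR was captured on streptavidin plates, then His-tagged human RBP4 was added with compound premixed with 50 nM retinol (8 doses). Binding ran 2 h at room temperature in 50 mM Tris-HCl, 150 mM NaCl, 0.005% Tween 20, 1 mM DTT, 0.1% BSA, read by luminescence. Inhibition was scaled between retinol+DMSO and retinol-free controls, and IC50 fitted.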

For test [2], the target named is RBP4 (Mus musculus (Mouse), UniProt Q00724). As to the kind of experiment: Single administration test in mice, plasma RBP4 by ELISA. It is filed as in vivo. Conditions: male C57BL/6J or ICR mice, 50 mg/kg oral single dose, mean±SD. A digest of the protocol:
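Male 6–12-week-old C57BL/6J or ICR mice on CE2 diet received compound orally at 50 mg/10 mL/kg in 0.5% methylcellulose (3–5 per group). Plasma sampled at 0, 4, 7 and 24 hr post-dose; RBP4 measured by sandwich ELISA (OD 450 nm) against mouse recombinant RBP4 standards, expressed as % of initial/Control.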

With `CC(C)(C)c1ccccc1N1CCN(C(=O)C(=O)O)CC1` [Example 44, 2-[4-(2-tert-Butylphenyl)piperazin-1-yl]-2-oxoacetic acid], in test [1] (at 10 μM compound, read-out: human RBP4 binding inhibitory activity(% at 10 μM)), the inhibition at 10 µM came out at 100%. For the same compound, in test [1] (retinol 50 nM, His-tagged human RBP4, biotinylated human TTR, read-out: human RBP4 binding inhibitory activity (IC50 nM)), the IC50 turned out to be 38 nM. For the same compound, in test [2] (0 hr (just before the administration)), the “RBP4 (% of initial/Control) 0 hr” value is recorded as 100.0 ± 25.0 % of initial/Control. Moreover, in test [2] (4 hr after administration), the “RBP4 (% of initial/Control) 4 hr” value was 52.4 ± 2.8 % of initial/Control. In addition, in test [2] (7 hr after administration), the “RBP4 (% of initial/Control) 7 hr” value is 50.2 ± 0.9 % of initial/Control. The “RBP4 (% of initial/Control) 24 hr” value in test [2] (24 hr after administration) is 145.9 ± 19.6 % of initial/Control.

Source of the values: patent US8853215B2, “Derivatives of N-acyl-N′-phenylpiperazine useful (inter alia) for the prophylaxis or treatment of diabetes” (Takeda Pharmaceutical Company Limited, priority 2009, dated 2014).
